The values below come from patent US11795223B2, “Combination therapies for treating myelodysplastic syndromes and acute myeloid leukemia” (Forty Seven, Inc., priority 2019, dated 2023).

The subject of one data set is MDS. Particulars: cited from earlier work.
A short description of data set [1]: Phase 1 trials of Hu5F9-G4 monotherapy. Type of data set: in vivo. The note with it: Phase 1 trial.
Another data set has as its system human AML. The data set is described as follows: nonclinical xenograft models of human AML. In kind it is in vivo. Particulars: mice.
Setting [2] is: pivotal randomized trial leading to azacitidine approval in MDS.

Turning to `Nc1ncn([C@@H]2O[C@H](CO)[C@@H](O)[C@H]2O)c(=O)n1` [azacitidine], the “known CR rate” value in the data set on MDS (azacitidine alone) is on record as 17.85%. Further, in the data set on MDS (setting [2]), the “CR+PR rate, point estimate” value was 15.7% and the “CR+PR rate, upper bound of the 1-sided 95% confidence interval” value is 23.5%.
With “Hu5F9-G4: humanized IgG4 kappa monoclonal antibody targeting human CD47; heavy chain SEQ ID NO: 50, light chain SEQ ID NO: 51”, in data set [1], the “maximum tolerated dose (MTD)” value is recorded as “has not been reached” and the tolerability entry is given as “well tolerated”. The “leukemic disease in the peripheral blood and bone marrow” value in the data set on human AML was “robust elimination of leukemic disease in the peripheral blood and bone marrow which results in long term remissions in a high percentage of mice treated”.
